Assay results reported in patent US5585353A, “Antibiotic peptides containing D-amino acids” (The Rockefeller University, priority 1994, dated 1996).
Residues, ends and D or L forms follow the SMILES beside them. No end group written: not given here.

What was measured:
Type in all cases: cell-based
Sheep red cells = assay: inhibition zone assay, lethal concentration on sheep red cells; settings: thin agarose plates
Protocol: (§1) Thin agar or agarose plates (8.5 cm diameter) were prepared with 6 ml of rich medium containing 100 ug/ml of streptomycin and 2×10^5 viable cells of a test organism resistant to streptomycin. Wells of 3.5 mm diameter were punched in the plates and 3 ul of serially diluted samples were placed in the wells. The diameters of the zones of inhibition around the wells were measured after overnight incubation at 30° or 37° C. For each peptide the squares of the zone diameters were plotted against the logarithm of the concentration, and from the slopes and intercepts the lethal concentrations were calculated as described by Hultmark (1983) EMBO J. 2, 571-76 or Hultmark et al (1982) Eur. J. Biochem. 127 207-217 each of which being incorporated herein by reference.
(§2) Lethal Concentrations calculated from inhibition zones on thin agarose
(§3) S. aureus Cowan 1; Strep: S. pyogenes; SRC: Sheep red cells.; *all amino

E. coli D21 = assay: inhibition zone assay, lethal concentration; settings: E. coli D21, thin agarose plates
Protocol: as §1, §2
(§4) plates seeded with the respective organisms. D21: E. coli; OT97: P.

P. aeruginosa OT97 = assay: inhibition zone assay, lethal concentration; settings: P. aeruginosa OT97, thin agarose plates
Protocol: as §1, §2, §4
(§5) aeruginosa; Bs11: B. subtilis; +ME: plates prepared with medium E; Staph: […]

B. subtilis Bs11 = assay: inhibition zone assay, lethal concentration; settings: for Lethal Concentrations Bs11 +ME: B. subtilis Bs11, plates prepared with medium E; for Lethal Concentrations Bs11: B. subtilis Bs11, thin agarose plates
Protocol: as §1, §2, §5

S. aureus Cowan 1 = assay: inhibition zone assay, lethal concentration; settings: S. aureus Cowan 1, thin agarose plates
Protocol: as §1, §2
aeruginosa; Bs11: B. subtilis; +ME: plates prepared with medium E; Staph:
as §3

S. pyogenes = assay: inhibition zone assay, lethal concentration; settings: thin agarose plates
Protocol: as §1, §2, §3

| Molecule | Lethal Concentrations SRC (Sheep red cells) [µM] | Lethal Concentrations D21 (E. coli D21) [µM] | Lethal Concentrations OT97 (P. aeruginosa OT97) [µM] | Lethal Concentrations Bs11 +ME (B. subtilis Bs11) [µM] | Lethal Concentrations Bs11 (B. subtilis Bs11) [µM] | Lethal Concentrations Staph (S. aureus Cowan 1) [µM] | Lethal Concentrations Strep (S. pyogenes) [µM] |
| --- | --- | --- | --- | --- | --- | --- | --- |
| CC[C@H](C)[C@H](NC(=O)CNC(=O)[C@H](CCC(N)=O)NC(=O)CNC(=O)[C@@H](NC(=O)[C@H](CCCCN)NC(=O)[C@H](CCC(=O)O)NC(=O)[C@@H](NC(=O)[C@H](CCCCN)NC(=O)[C@H](CCCCN)NC(=O)[C@H](Cc1ccccc1)NC(=O)[C@H](CC(C)C)NC(=O)[C@H](CCCCN)NC(=O)[C@H](Cc1c[nH]c2ccccc12)NC(=O)[C@@H](N)CCCCN)[C@@H](C)CC)C(C)C)C(=O)NCC(=O)N[C@@H](C)C(=O)N[C@H](C(=O)N[C@@H](CC(C)C)C(=O)N[C@@H](CCCCN)C(=O)N[C@H](C(=O)N[C@@H](CC(C)C)C(=O)N[C@H](C(=O)N[C@H](C(=O)NCC(=O)N[C@@H](CC(C)C)C(N)=O)[C@@H](C)O)[C@@H](C)O)C(C)C)C(C)C [Compound 3] | > 200 |  |  |  |  |  |  |
| CC[C@@H](C)[C@@H](NC(=O)CNC(=O)[C@@H](CCC(N)=O)NC(=O)CNC(=O)[C@H](NC(=O)[C@@H](CCCCN)NC(=O)[C@@H](CCC(=O)O)NC(=O)[C@H](NC(=O)[C@@H](CCCCN)NC(=O)[C@@H](CCCCN)NC(=O)[C@@H](Cc1ccccc1)NC(=O)[C@@H](CC(C)C)NC(=O)[C@@H](CCCCN)NC(=O)[C@@H](Cc1c[nH]c2ccccc12)NC(=O)[C@H](N)CCCCN)[C@H](C)CC)C(C)C)C(=O)NCC(=O)N[C@H](C)C(=O)N[C@@H](C(=O)N[C@H](CC(C)C)C(=O)N[C@H](CCCCN)C(=O)N[C@@H](C(=O)N[C@H](CC(C)C)C(=O)N[C@@H](C(=O)N[C@@H](C(=O)NCC(=O)N[C@H](CC(C)C)C(N)=O)[C@H](C)O)[C@H](C)O)C(C)C)C(C)C [Compound 4] | 500 |  |  |  |  |  |  |
| CC[C@H](C)[C@H](NC(=O)CNC(=O)[C@@H](NC(=O)[C@H](CCCCN)NC(=O)[C@H](CCCCN)NC(=O)[C@H](Cc1ccccc1)NC(=O)[C@H](CC(C)C)NC(=O)[C@H](CCCCN)NC(=O)[C@H](Cc1c[nH]c2ccccc12)NC(=O)[C@@H](N)CCCCN)[C@@H](C)CC)C(=O)NCC(=O)N[C@@H](C)C(=O)N[C@H](C(=O)N[C@@H](CC(C)C)C(=O)N[C@@H](CCCCN)C(=O)N[C@H](C(=O)N[C@@H](CC(C)C)C(=O)N[C@H](C(=O)N[C@H](C(=O)NCC(=O)N[C@@H](CC(C)C)C(=O)N1CCC[C@H]1C(=O)N[C@@H](C)C(=O)N[C@@H](CC(C)C)C(=O)N[C@H](C(=O)N[C@@H](CO)C(N)=O)[C@@H](C)CC)[C@@H](C)O)[C@@H](C)O)C(C)C)C(C)C [Compound 6] | > 600 |  |  |  |  |  |  |
| CC[C@@H](C)[C@@H](NC(=O)CNC(=O)[C@H](NC(=O)[C@@H](CCCCN)NC(=O)[C@@H](CCCCN)NC(=O)[C@@H](Cc1ccccc1)NC(=O)[C@@H](CC(C)C)NC(=O)[C@@H](CCCCN)NC(=O)[C@@H](Cc1c[nH]c2ccccc12)NC(=O)[C@H](N)CCCCN)[C@H](C)CC)C(=O)NCC(=O)N[C@H](C)C(=O)N[C@@H](C(=O)N[C@H](CC(C)C)C(=O)N[C@H](CCCCN)C(=O)N[C@@H](C(=O)N[C@H](CC(C)C)C(=O)N[C@@H](C(=O)N[C@@H](C(=O)NCC(=O)N[C@H](CC(C)C)C(=O)N1CCC[C@@H]1C(=O)N[C@H](C)C(=O)N[C@H](CC(C)C)C(=O)N[C@@H](C(=O)N[C@H](CO)C(N)=O)[C@H](C)CC)[C@H](C)O)[C@H](C)O)C(C)C)C(C)C [Compound 7] | > 400 |  |  |  |  |  |  |
| CC[C@@H](C)[C@@H](NC(=O)CN)C(=O)NCC(=O)N[C@H](CCCCN)C(=O)N[C@H](Cc1ccccc1)C(=O)N[C@H](CC(C)C)C(=O)N[C@H](Cc1c[nH]cn1)C(=O)N[C@H](CO)C(=O)N[C@H](C)C(=O)N[C@H](CCCCN)C(=O)N[C@H](CCCCN)C(=O)N[C@H](Cc1ccccc1)C(=O)NCC(=O)N[C@H](CCCCN)C(=O)N[C@H](C)C(=O)N[C@H](Cc1ccccc1)C(=O)N[C@@H](C(=O)NCC(=O)N[C@H](CCC(=O)O)C(=O)N[C@@H](C(=O)N[C@H](CCSC)C(=O)N[C@H](CC(N)=O)C(=O)N[C@H](CO)C(N)=O)[C@H](C)CC)C(C)C [Compound 9] (HELM PEPTIDE1{G.[dI].G.[dK].[dF].[dL].[dH].[dS].[dA].[dK].[dK].[dF].G.[dK].[dA].[dF].[dV].G.[dE].[dI].[dM].[dN].[dS].[am]}$$$$V2.0) | > 400 | 1 | 30 | 4 | 3 | 100 | 3 |
| CC[C@H](C)[C@H](NC(=O)CN)C(=O)NCC(=O)N[C@@H](C)C(=O)N[C@H](C(=O)N[C@@H](CC(C)C)C(=O)N[C@@H](CCCCN)C(=O)N[C@H](C(=O)N[C@@H](CC(C)C)C(=O)N[C@H](C(=O)N[C@H](C(=O)NCC(=O)N[C@@H](CC(C)C)C(=O)N1CCC[C@H]1C(=O)N[C@@H](C)C(=O)N[C@@H](CC(C)C)C(=O)N[C@H](C(=O)N[C@@H](CO)C(=O)N[C@@H](Cc1c[nH]c2ccccc12)C(=O)N[C@H](C(=O)N[C@@H](CCCCN)C(=O)N[C@@H](CCCNC(=N)N)C(=O)N[C@@H](CCCCN)C(=O)N[C@@H](CCCNC(=N)N)C(=O)N[C@@H](CCC(N)=O)C(=O)N[C@@H](CCC(N)=O)C(N)=O)[C@@H](C)CC)[C@@H](C)CC)[C@@H](C)O)[C@@H](C)O)C(C)C)C(C)C [Compound 10, Melittin] | 4 to 8 | 0.8 | 3 | 0.3 | 0.2 | 0.2 | 0.5 |
| GIGKFLHSAKKFGKAFVGEIMNS-NH2 [Compound 8] | 300 | 4 | 30 | 8 | 3 | 300 | 4 |
